In ChEMBL document CHEMBL4376864, “Binding Loop Substitutions in the Cyclic Peptide SFTI-1 Generate Potent and Selective Chymase Inhibitors” (J Med Chem, 2020):
Bridge positions count the residues as written; N and C are the ends. Square brackets hold non-standard residues; d marks the D form. Peptide text beside a SMILES is read from it. * marks the point of attachment. Phe(4-NO2) = N[C@@H](Cc1ccc([N+](=O)[O-])cc1)C(=O)O; Phe(4-tBu) = CC(C)(C)c1ccc(C[C@H](N)C(=O)O)cc1; Bip = N[C@@H](Cc1ccc(-c2ccccc2)cc1)C(=O)O; pNA = O=[N+]([O-])c1ccc(N*)cc1; Nle = CCCC[C@H](N)C(=O)O

What was measured:
Chymase [1] = target: T1, Chymase (Homo sapiens, UniProt P23946); assay: Substrate activity at recombinant human chymase expressed in Pichia pastoris X-33 cells assessed as Kcat by spectrophotometry analysis; format: ADME
T1 sequence (P23946 whole entry): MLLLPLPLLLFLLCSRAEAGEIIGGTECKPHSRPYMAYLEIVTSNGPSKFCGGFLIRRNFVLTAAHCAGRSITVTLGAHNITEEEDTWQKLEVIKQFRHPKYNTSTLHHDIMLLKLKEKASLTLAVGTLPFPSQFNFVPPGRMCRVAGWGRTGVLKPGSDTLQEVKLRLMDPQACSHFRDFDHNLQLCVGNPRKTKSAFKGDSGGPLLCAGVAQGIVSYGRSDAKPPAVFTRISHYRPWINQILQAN

Chymase [2] = target: T1, Chymase; assay: Substrate activity at recombinant human chymase expressed in Pichia pastoris X-33 cells assessed as Km by spectrophotometry analysis; format: ADME
Chymase [3] = target: T1, Chymase; assay: Substrate activity at recombinant human chymase expressed in Pichia pastoris X-33 cells assessed as ratio of Kcat/Km by spectrophotometry analysis; format: ADME
Cathepsin G = target: T2, Cathepsin G (Homo sapiens, UniProt P08311); assay: Inhibition of human cathepsin G using Suc-AAPF-MCA as substrate at pH 7.2 and 298 K measured every 60 secs for 600 secs
T2 sequence (P08311 whole entry): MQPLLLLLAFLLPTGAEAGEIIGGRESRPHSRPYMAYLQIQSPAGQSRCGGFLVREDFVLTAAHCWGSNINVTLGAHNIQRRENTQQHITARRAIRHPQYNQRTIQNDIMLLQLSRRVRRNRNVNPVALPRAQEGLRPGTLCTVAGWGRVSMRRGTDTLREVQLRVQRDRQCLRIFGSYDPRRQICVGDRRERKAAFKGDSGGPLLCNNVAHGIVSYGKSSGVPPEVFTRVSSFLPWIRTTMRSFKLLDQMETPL

Chymotrypsin = Chymotrypsin (Homo sapiens, UniProt Q99895+P17538+P40313+Q6GPI1); assay: Inhibition of human chymotrypsin using Suc-AAPF-MCA as substrate at pH 8 and 298 K measured every 60 secs for 600 secs; format: protein assay
Chymase [4] = target: T1, Chymase; assay: Inhibition of recombinant human chymase expressed in Pichia pastoris X-33 cells using NleTDY-pNA as substrate assessed as cleavage of pNA at pH 7.2 and 298 K by spectrophotometry analysis
Neutrophil elastase = target: T3, Neutrophil elastase (Homo sapiens, UniProt P08246); assay: Inhibition of human neutrophil elastase using MeOSuc-AAPV-MCA as substrate at pH 7.2 and 298 K measured every 60 secs for 600 secs
T3 sequence (P08246 whole entry): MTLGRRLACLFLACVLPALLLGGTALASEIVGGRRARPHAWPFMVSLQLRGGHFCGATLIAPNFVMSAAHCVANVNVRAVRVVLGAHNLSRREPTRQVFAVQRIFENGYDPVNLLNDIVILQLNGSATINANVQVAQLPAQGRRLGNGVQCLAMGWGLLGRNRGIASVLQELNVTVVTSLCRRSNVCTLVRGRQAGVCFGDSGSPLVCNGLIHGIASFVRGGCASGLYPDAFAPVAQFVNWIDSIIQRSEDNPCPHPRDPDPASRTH

Prothrombin = Prothrombin (Homo sapiens, UniProt P00734); assay: Inhibition of human thrombin using Boc-VPR-MCA as substrate at pH 8 and 298 K measured every 60 secs for 600 secs
[5] = Inhibition of human cationic trypsin using Boc-VPR-MCA as substrate at pH 8 and 298 K measured every 60 secs for 600 secs
Kallikrein-7 = Kallikrein-7 (Homo sapiens, UniProt P49862); assay: Inhibition of recombinant human KLK7 expressed in Pichia pastoris X-33 using KHLY-pNA as substrate at pH 8 and 298 K measured every 60 secs for 600 secs
Sequence of Kallikrein-7 (P49862 whole entry): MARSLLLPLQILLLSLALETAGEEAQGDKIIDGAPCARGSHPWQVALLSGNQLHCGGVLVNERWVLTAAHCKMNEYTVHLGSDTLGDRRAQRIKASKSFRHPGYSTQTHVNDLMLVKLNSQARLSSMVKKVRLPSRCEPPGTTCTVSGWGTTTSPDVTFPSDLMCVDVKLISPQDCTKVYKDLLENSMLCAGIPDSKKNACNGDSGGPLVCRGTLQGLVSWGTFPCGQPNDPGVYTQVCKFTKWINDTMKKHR

Homo sapiens = species on record: Homo sapiens; assay: Selectivity index, ratio of Ki for human cathepsin G using Suc-AAPF-MCA as substrate to Ki for recombinant human chymase expressed in Pichia pastoris X-33 cells using NleTDY-pNA as substrate
Coagulation factor XII = target: T4, Coagulation factor XII (Homo sapiens, UniProt P00748); assay: Inhibition of human coagulation factor 12a using Ac-QRFR-pNA as substrate at pH 8 and 298 K measured every 60 secs for 600 secs
T4 sequence (P00748 whole entry): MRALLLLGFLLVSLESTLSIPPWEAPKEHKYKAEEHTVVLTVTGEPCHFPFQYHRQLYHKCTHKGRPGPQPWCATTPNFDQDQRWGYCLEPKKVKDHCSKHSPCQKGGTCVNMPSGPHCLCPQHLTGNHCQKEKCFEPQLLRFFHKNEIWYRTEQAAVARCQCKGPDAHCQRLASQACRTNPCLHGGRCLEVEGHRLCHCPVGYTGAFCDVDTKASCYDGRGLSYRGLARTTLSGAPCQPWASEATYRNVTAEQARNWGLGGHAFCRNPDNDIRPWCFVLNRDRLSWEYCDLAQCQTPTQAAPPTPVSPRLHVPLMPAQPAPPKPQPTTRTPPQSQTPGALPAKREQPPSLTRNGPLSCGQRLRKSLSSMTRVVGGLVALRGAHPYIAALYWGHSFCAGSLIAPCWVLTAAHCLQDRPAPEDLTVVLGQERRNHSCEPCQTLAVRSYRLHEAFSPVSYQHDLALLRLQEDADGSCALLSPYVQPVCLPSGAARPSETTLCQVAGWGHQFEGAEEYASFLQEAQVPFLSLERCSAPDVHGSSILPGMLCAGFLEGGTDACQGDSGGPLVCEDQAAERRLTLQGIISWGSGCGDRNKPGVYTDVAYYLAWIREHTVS

For `C[C@@H](O)[C@H](NC(=O)[C@@H](NC(=O)[C@@H](N)CCCNC(=N)N)[C@@H](C)O)C(=O)N[C@@H](Cc1ccc(O)cc1)C(=O)Nc1ccc([N+](=O)[O-])cc1` (H-RTTY-pNA), the Kcat (Chymase [1]) was 18 s⁻¹, the Km (Chymase [2]) was 530 µM and the Kcat/Km (Chymase [3]) was 3.4 ×10⁴ /M/s.

`CC[C@H](C)[C@@H]1NC(=O)[C@@H]2CCCN2C(=O)[C@@H]2CCCN2C(=O)[C@H](CCC(=O)O)NC(=O)[C@H](CO)NC(=O)[C@H](Cc2ccc(O)cc2)NC(=O)[C@H](CCC(N)=O)NC(=O)[C@@H]2CSSC[C@H](NC1=O)C(=O)N[C@@H](Cc1ccccc1)C(=O)N1CCC[C@H]1C(=O)N[C@@H](CC(=O)O)C(=O)NCC(=O)N[C@@H](CCCNC(=N)N)C(=O)N2` (cyclo(CFPDGRCQYSEPPI); disulfide 1-7) showed a Ki (Cathepsin G) of 0.26 nM and a Ki (Chymotrypsin) of 150 nM.

Molecule `C[C@@H](O)[C@@H]1NC(=O)[C@@H]2CSSC[C@H](NC(=O)[C@H](CCC(=O)O)NC(=O)[C@@H]3CCCN3C(=O)[C@@H]3CCCN3C(=O)[C@H](CCC(=O)O)NC(=O)[C@H](CO)NC(=O)[C@H](Cc3ccc(O)cc3)NC1=O)C(=O)N[C@@H](Cc1ccccc1)C(=O)N1CCC[C@H]1C(=O)N[C@@H](CC(=O)O)C(=O)NCC(=O)N[C@@H](CCCNC(=N)N)C(=O)N2` (cyclo(CFPDGRCTYSEPPE); disulfide 1-7) has a Ki (Cathepsin G) of 14 nM and a Ki (Chymotrypsin) of 11 nM.

With `CC[C@H](C)[C@@H]1NC(=O)[C@@H]2CCCN2C(=O)[C@@H]2CCCN2C(=O)[C@H](CCC(=O)O)NC(=O)[C@H](CO)NC(=O)[C@H](Cc2ccc(O)cc2)NC(=O)[C@H](C)NC(=O)[C@@H]2CSSC[C@H](NC1=O)C(=O)N[C@@H](Cc1ccccc1)C(=O)N1CCC[C@H]1C(=O)N[C@@H](CC(=O)O)C(=O)NCC(=O)N[C@@H](Cc1ccccc1)C(=O)N2` (cyclo(AYSEPPICFPDGFC); disulfide 8-14) the Ki (Cathepsin G) was under 0.1 nM and the Ki (Chymotrypsin) was 0.42 nM.

`CCCC[C@H](N)C(=O)N[C@H](C(=O)N[C@@H](CC(=O)O)C(=O)N[C@@H](Cc1ccc(O)cc1)C(=O)Nc1ccc([N+](=O)[O-])cc1)[C@@H](C)O` (H-[Nle]TDY-pNA) showed a Kcat (Chymase [1]) of 22 s⁻¹, a Km (Chymase [2]) of 550 µM and a Kcat/Km (Chymase [3]) of 4 ×10⁴ /M/s.

Work on `CC(C)(C)c1ccc(C[C@@H]2NC(=O)[C@H](CCC(N)=O)NC(=O)[C@@H]3CSSC[C@H](NC(=O)[C@H](CCC(=O)O)NC(=O)[C@@H]4CCCN4C(=O)[C@@H]4CCCN4C(=O)[C@H](CCC(=O)O)NC(=O)[C@H](CO)NC2=O)C(=O)N[C@@H](Cc2ccccc2)C(=O)N2CCC[C@H]2C(=O)N[C@@H](CC(=O)O)C(=O)NCC(=O)N[C@@H](CCCNC(=N)N)C(=O)N3)cc1` (cyclo(CFPDGRCQ[Phe(4-tBu)]SEPPE); disulfide 1-7) yielded an IC50 (Chymase [4]) of over 10000 nM.

Molecule `CC[C@H](C)[C@@H]1NC(=O)[C@@H]2CCCN2C(=O)[C@@H]2CCCN2C(=O)[C@H](CCC(=O)O)NC(=O)[C@H](CO)NC(=O)[C@H](Cc2ccc(O)cc2)NC(=O)[C@H]([C@@H](C)O)NC(=O)[C@@H]2CSSC[C@H](NC1=O)C(=O)N[C@@H](Cc1ccccc1)C(=O)N1CCC[C@H]1C(=O)N[C@@H](CC(=O)O)C(=O)NCC(=O)N[C@@H](CCCNC(=N)N)C(=O)N2` (cyclo(CFPDGRCTYSEPPI); disulfide 1-7) has a Ki (Cathepsin G) of 8.2 nM and a Ki (Chymotrypsin) of 0.88 nM.

`CC[C@H](C)[C@@H]1NC(=O)[C@@H]2CCCN2C(=O)[C@@H]2CCCN2C(=O)[C@H]([C@@H](C)CC)NC(=O)[C@H](CO)NC(=O)[C@H](Cc2ccc(O)cc2)NC(=O)[C@H](CC(=O)O)NC(=O)[C@@H]2CSSC[C@H](NC1=O)C(=O)N[C@@H](Cc1ccccc1)C(=O)N1CCC[C@H]1C(=O)N[C@@H](CC(=O)O)C(=O)NCC(=O)N[C@@H](Cc1ccccc1)C(=O)N2` (cyclo(CDYSIPPICFPDGF); disulfide 1-9) showed an IC50 (Chymase [4]) of over 5000 nM.

Work on `CCCC[C@@H]1NC(=O)CNC(=O)[C@H](CC(=O)O)NC(=O)[C@@H]2CCCN2C(=O)[C@H](Cc2ccccc2)NC(=O)[C@@H]2CSSC[C@H](NC1=O)C(=O)N[C@@H](CC(=O)O)C(=O)N[C@@H](Cc1ccc(O)cc1)C(=O)N[C@@H](CO)C(=O)N[C@@H]([C@@H](C)CC)C(=O)N1CCC[C@H]1C(=O)N1CCC[C@H]1C(=O)N[C@@H]([C@@H](C)CC)C(=O)N2` (cyclo(CDYSIPPICFPDG[Nle]); disulfide 1-9) yielded an IC50 (Chymase [4]) of over 5000 nM.

In the case of `CC[C@H](C)[C@@H]1NC(=O)[C@@H]2CCCN2C(=O)[C@@H]2CCCN2C(=O)[C@H](Cc2ccc(-c3ccccc3)cc2)NC(=O)[C@H](CO)NC(=O)[C@H](Cc2ccc(O)cc2)NC(=O)[C@H](C)NC(=O)[C@@H]2CSSC[C@H](NC1=O)C(=O)N[C@@H](Cc1ccccc1)C(=O)N1CCC[C@H]1C(=O)N[C@@H](CC(=O)O)C(=O)NCC(=O)N[C@@H](Cc1ccccc1)C(=O)N2` (cyclo(AYS[Bip]PPICFPDGFC); disulfide 8-14), the Ki (Cathepsin G) is reported as 7.4 nM and the Ki (Chymotrypsin) is reported as 1.5 nM.

Molecule `C[C@@H](O)[C@H](NC(=O)[C@H](CCC(=O)O)NC(=O)[C@@H](N)CCCNC(=N)N)C(=O)N[C@@H](Cc1ccc(O)cc1)C(=O)Nc1ccc([N+](=O)[O-])cc1` (H-RETY-pNA) has a Kcat (Chymase [1]) of 13 s⁻¹, a Km (Chymase [2]) of 410 µM and a Kcat/Km (Chymase [3]) of 3.2 ×10⁴ /M/s.

In the case of `N=C(N)NCCC[C@@H]1NC(=O)CNC(=O)[C@H](CC(=O)O)NC(=O)[C@@H]2CCCN2C(=O)[C@H](Cc2ccccc2)NC(=O)[C@@H]2CSSC[C@H](NC1=O)C(=O)N[C@@H](CCC(N)=O)C(=O)N[C@@H](Cc1ccc([N+](=O)[O-])cc1)C(=O)N[C@@H](CO)C(=O)N[C@@H](CCC(=O)O)C(=O)N1CCC[C@H]1C(=O)N1CCC[C@H]1C(=O)N[C@@H](CCC(=O)O)C(=O)N2` (cyclo(CFPDGRCQ[Phe(4-NO2)]SEPPE); disulfide 1-7), the IC50 (Neutrophil elastase) is reported as over 10000 nM, the IC50 (Prothrombin) is reported as over 10000 nM and the Ki (Cathepsin G) is reported as 5200 nM. For the same molecule, the IC50 [5] was over 10000 nM, the Ki (Chymase [4]) was 54 nM and the Ki (Chymotrypsin) was 920 nM. It also gave an IC50 (Kallikrein-7) of over 10000 nM, a Ratio Ki (Homo sapiens) of 96 and an IC50 (Coagulation factor XII) of over 10000 nM.

`CC[C@H](C)[C@@H]1NC(=O)[C@@H]2CCCN2C(=O)[C@@H]2CCCN2C(=O)[C@H]([C@@H](C)CC)NC(=O)[C@H](CO)NC(=O)[C@H](CCCCN)NC(=O)[C@H]([C@@H](C)O)NC(=O)[C@@H]2CSSC[C@H](NC1=O)C(=O)N[C@@H](Cc1ccccc1)C(=O)N1CCC[C@H]1C(=O)N[C@@H](CC(=O)O)C(=O)NCC(=O)N[C@@H](CCCNC(=N)N)C(=O)N2` gave an IC50 (Chymase [4]) of over 5000 nM.

`C[C@@H](O)[C@H](NC(=O)[C@@H](N)Cc1ccccc1)C(=O)N[C@@H](CC(=O)O)C(=O)N[C@@H](Cc1ccc(O)cc1)C(=O)Nc1ccc([N+](=O)[O-])cc1` (H-FTDY-pNA) showed a Kcat (Chymase [1]) of 14 s⁻¹, a Km (Chymase [2]) of 370 µM and a Kcat/Km (Chymase [3]) of 3.8 ×10⁴ /M/s.
